{"source": "patent US12422427B2", "about": "“Compounds for treatment of diseases and methods of screening therefor” (Max-Planck-Gesellschaft zur Förderung der Wissenschaften …, priority 2018, dated 2025)", "key": {"[1]": {"system": "EWSR1, TIAL1, PABPC1, G3BP1", "assay": "Panel of HeLa lines expressing GFP-labelled stress granule proteins, arsenate stress", "assay_type": "cell-based", "settings": "1 mM arsenate, 10 μM compound", "method": "It was anticipated that a useful therapeutic would prevent all PLD-containing stress granule proteins from localising to stress granules. The inventors used 1 mM arsenate to stress a panel of HeLa cell lines expressing GFP fusions of stress granule proteins (EWSR1, TIAL1, PABPC1, G3BP1) with either no treatment or 10 μM lipoic acid or lipoamide.\nCompound effects were assessed under a variety of conditions in HeLa or iPS cells expressing wild-type or P525L FUS GFP by live cell imaging. Different combinations of 1 h pre-treatment compound or pre-stress with arsenate followed by 1 h treatment with compound and/or stress with arsenate. Unless otherwise indicated, cells were pre-treated for 1 h using 10 μM compound from 10 mM stock in DMSO (or an equal volume of DMSO control) then stressed for 1 h with 1 mM potassium arsenate still in the presence of compound. GFP fluorescence was imaged by widefield epifluorescence using an inverted Olympus IX71 microscope with an Olympus 100× NA 1.4 Plan Apo oil immersion objective and a CoolSNAP HQ CCD camera (Photometrics), using a DeltaVision climate control unit (37° C., 5% CO2) (Applied Precision). The kinetics of pre-stress followed by treatment was analysed from images captured at 2 min intervals for 100 min, for single time points images were captured after 1 h unless otherwise indicated."}, "[2]": {"system": "iPS MNs expressing P525L FUS", "assay": "Axonal transport of lysosomes in iPS motor neurons expressing P525L FUS", "assay_type": "cell-based, human", "settings": "2 μM, 3 days", "method": "FIG. 12A) Example kymographs of lysosome movement in the distal portion of FUS P525L GFP motor neuron axons after 3 days treatment with compound solvent (DMSO) or 2 μM lipoamide. Lysotracker fluorescence. FIG. 12B) Proportion of lysotracker-labelled lysosomes moving with an average speed greater than 2 μm/s following 3 days treatment with 2 μM lipoamide or equivalent DMSO concentration solvent control for motor neurons expressing either P525L or wild-type FUS. n=5 (P525L) or n=3 (wild-type) biological replicates, analysing 5 axon bundles per replicate.\nFor analysis of axonal transport iPS MNs expressing P525L FUS were treated with 2 μM compound or an equal volume of DMSO for 3 days. Longer incubation was selected to ensure penetration and action of compounds along the length of the axon channel. 2 μM was selected as the highest concentration where there were no toxic effects (assessed qualitatively). […] were labelled by addition of 50 nM lysotracker red (ThermoFisher) and imaged using a Leica DMI6000 inverted microscope with a 100× NA 1.46 oil immersion objective and an Andor iXON 897 EMCCD camera in an incubator chamber (37° C., 5% CO2) at 3⅓ Hz for 120 s at either the proximal or distal end of the silicone channels containing the axons. […]"}, "FUS eGFP condensate": {"biological_target": "T1, FUS eGFP condensate (Homo sapiens, UniProt P35637)", "T1 sequence (P35637 1-526)": "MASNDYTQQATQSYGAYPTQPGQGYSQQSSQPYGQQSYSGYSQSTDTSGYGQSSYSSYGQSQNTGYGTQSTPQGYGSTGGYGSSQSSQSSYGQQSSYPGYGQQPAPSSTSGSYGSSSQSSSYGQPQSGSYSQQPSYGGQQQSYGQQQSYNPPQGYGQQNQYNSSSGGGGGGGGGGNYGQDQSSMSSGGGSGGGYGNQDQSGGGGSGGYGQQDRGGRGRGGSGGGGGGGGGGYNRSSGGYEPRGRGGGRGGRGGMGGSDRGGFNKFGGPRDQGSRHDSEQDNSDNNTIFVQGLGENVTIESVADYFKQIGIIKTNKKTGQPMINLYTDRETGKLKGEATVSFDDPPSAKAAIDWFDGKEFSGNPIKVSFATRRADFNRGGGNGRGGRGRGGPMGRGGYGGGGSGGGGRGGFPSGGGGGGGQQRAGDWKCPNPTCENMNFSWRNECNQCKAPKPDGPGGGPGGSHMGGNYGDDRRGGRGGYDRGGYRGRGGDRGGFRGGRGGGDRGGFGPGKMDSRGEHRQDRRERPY", "assay": "Optical tweezers fusion assay of FUS condensate liquidity", "assay_type": "biochemical", "method": "FIG. 5A) Schematic illustrating the quantitation of condensate droplet liquidity using optical tweezers. Two droplets are brought into contact and begin to fuse the time taken to relax to a single spherical droplet (once adjusted for droplet size) is a measure of the viscosity to surface tension ratio of the droplet—a measure of liquidity. Representative of two independent replicates. FIG. 5B) Droplet size-corrected relaxation times for droplet fusions with either 300 μM lipoamide or equivalent DMSO solvent control (0.3%). Box represents the 25th, 50th and 75th percentiles, whiskers represent 5th and 95th percentiles. […] FIGS. 5C-5E) Effect of 10 μM lipoamide on G156E FUS GFP condensates (formed under dextran crowding) on ‘aging’ while shaking, relative to an equivalent DMSO solvent control (0.1%). These conditions match those previously published^7. FIG. 5C) Representative images after 30 h aging, showing fibre formation in the DMSO sample. FIG. 5D) Representative fluorescence recovery after photobleaching (FRAP) time series of FUS condensates and fibres during aging. FIG. 5E) Quantitation of FRAP in FIG. 5C). Error bars represent standard deviation. […] Both compounds delay fibre formation.\nLipoamide effect on FUS eGFP condensate liquidity (surface tension and viscosity) was determined. Here, condensate droplets were brought together by optical tweezers and the rate of fusion and relaxation to a sphere was measured (FIG. 5A)."}}, "note": "Entries after “also recorded” stand apart in the source; their conditions may differ.", "data": [{"smiles": "NC(=O)CCCCC1CCSS1", "note": "(racemic) [lipoamide, 5-(1,2-dithiolan-3-yl)pentanamide]", "values": [{"measurement": "localisation of EWSR1, TIAL1, PABPC1, G3BP1 GFP to stress granules", "setting": "[1]", "value": "localised to stress granules in the absence of treatment, and not in the presence"}, {"measurement": "axonal (lysosome) transport", "setting": "[2]", "value": "recovered axonal transport in P525L FUS iPS MNs to the same level as WT neurons; also recorded: significantly increased lysosome transport"}, {"measurement": "droplet size-corrected relaxation (fusion) time", "setting": "FUS eGFP condensate; 300 μM lipoamide vs 0.3% DMSO", "value": "reduces fusion time"}, {"measurement": "FUS eGFP condensate liquidity", "setting": "FUS eGFP condensate; rate of fusion and relaxation to a sphere", "value": "increased the liquidity by a factor of three"}, {"measurement": "concentration required for an effect on condensate liquidity in vitro", "setting": "FUS eGFP condensate; with 1 μM FUS", "value": "~100", "unit": "µM"}]}, {"smiles": "O=C(O)CCCCC1CCSS1", "note": "(racemic) [lipoic acid, 5-(1,2-dithiolan-3-yl)pentanoic acid]", "values": [{"measurement": "localisation of EWSR1, TIAL1, PABPC1, G3BP1 GFP to stress granules", "setting": "[1]", "value": "localised to stress granules in the absence of treatment, and not in the presence"}]}]}
